Molecules are shown by their SMILES. Where only a bound is given, the exact number is not on record here.

T1 sequence (O75460 547-977): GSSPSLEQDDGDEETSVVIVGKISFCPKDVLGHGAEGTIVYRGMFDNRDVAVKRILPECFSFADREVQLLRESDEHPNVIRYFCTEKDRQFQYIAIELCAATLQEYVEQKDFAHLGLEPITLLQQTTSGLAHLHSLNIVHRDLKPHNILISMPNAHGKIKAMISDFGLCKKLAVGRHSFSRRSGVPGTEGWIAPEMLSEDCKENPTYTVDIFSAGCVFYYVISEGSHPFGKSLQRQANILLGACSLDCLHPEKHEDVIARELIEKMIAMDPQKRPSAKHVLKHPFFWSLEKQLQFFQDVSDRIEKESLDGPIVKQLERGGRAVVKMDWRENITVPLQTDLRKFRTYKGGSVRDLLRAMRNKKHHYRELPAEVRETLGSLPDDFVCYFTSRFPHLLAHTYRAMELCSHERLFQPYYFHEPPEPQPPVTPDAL

This test concerns the target T1, Serine/threonine-protein kinase/endoribonuclease IRE1 [547-977] (Homo sapiens, UniProt O75460).
T1 construct: 547-977
Description: In vitro RNase Assay. The source says:
The fluorescence intensities were normalized by setting the signal for the reaction without IRE1α* to 0.
In turn, `COc1cccc(NC(=O)Nc2ccc(-c3nc(C4(C)CC4)n4ccnc(N)c34)c3ccccc23)c1` [KIRA analog, 15] had an IC50 of 310 nM.
The figure for `CC1(c2nc(-c3ccc(NC(=O)Nc4cccc(C(F)(F)F)c4)c4ccccc34)c3c(N)nccn23)COC1` [KIRA analog, 6] is 330 nM; for `CC1(c2nc(-c3ccc(NC(=O)NCCc4ccccc4)c4ccccc34)c3c(N)nccn23)CC1` [KIRA analog, 24] it is 4100 nM.
The figure for `COc1cc(NC(=O)Nc2ccc(-c3nc(C4(C)CC4)n4ccnc(N)c34)c3ccccc23)cc(C(F)(F)F)c1` [KIRA analog, 17] is 290 nM; for `CC1(c2nc(-c3ccc(NC(=O)N4CCCCC4)c4ccccc34)c3c(N)nccn23)CC1` [KIRA analog, 27] it is 60000 nM; for `CC1(c2nc(-c3ccc(NC(=O)NC4CCCCC4)c4ccccc34)c3c(N)nccn23)CC1` [KIRA analog, 25] it is 2200 nM.
The molecule `CC(C)(C)c1nc(-c2ccc(NC(=O)Nc3cccc(C(F)(F)F)c3)c3ccccc23)c2c(N)nccn12` [KIRA analog, 2] returned an IC50 of 120 nM.
`Cc1cc(NC(=O)Nc2ccc(-c3nc(C4(C)CC4)n4ccnc(N)c34)c3ccccc23)n[nH]1` [KIRA analog, 22] yielded an IC50 of 7100 nM.
In the case of `CC(C)(C)c1nc(-c2ccc(NC(=O)N3CCN(c4cccc(C(F)(F)F)c4)C3=O)c3ccccc23)c2c(N)nccn12` [KIRA analog, 30], the IC50 is more than 60000 nM.
For `Nc1nccn2c(C3CC3)nc(-c3ccc(NC(=O)Nc4cccc(C(F)(F)F)c4)c4ccccc34)c12` [KIRA analog, 5] the value was 480 nM; for `CC1(c2nc(-c3ccc(NC(=O)NC4CC4)c4ccccc34)c3c(N)nccn23)CC1` [KIRA analog, 28], 6300 nM; for `CC1(c2nc(-c3ccc(NC(=O)Nc4cccc(C(F)(F)F)c4)c(F)c3F)c3c(N)nccn23)CC1` [KIRA analog, 11], 20000 nM.
For the molecule `CC1(c2nc(-c3ccc(NC(=O)Nc4cccc(C(F)(F)F)c4)cc3F)c3c(N)nccn23)CC1` [KIRA analog, 7], the midpoint of inhibition, the IC50, lay at 390 nM.
For `CC1(c2nc(-c3ccc(NC(=O)Nc4cc(F)cc(C(F)(F)F)c4)c4ccccc34)c3c(N)nccn23)CC1` [KIRA analog, 18] the value was 610 nM; for `CC1(c2nc(-c3ccc(NC(=O)NCc4ccccc4)c4ccccc34)c3c(N)nccn23)CC1` [KIRA analog, 23], 3600 nM; for `CN(C(=O)Nc1ccc(-c2nc(C3(C)CC3)n3ccnc(N)c23)c2ccccc12)c1cccc(C(F)(F)F)c1` [KIRA analog, 29], 19000 nM.
The figure for `CSc1cccc(NC(=O)Nc2ccc(-c3nc(C4(C)CC4)n4ccnc(N)c34)c3ccccc23)c1` [KIRA analog, 16] is 140 nM.
The figure for `CNS(=O)(=O)c1cccc(NC(=O)Nc2ccc(-c3nc(C4(C)CC4)n4ccnc(N)c34)c3ccccc23)c1` [KIRA analog, 19] is 1600 nM; for `Nc1nccn2c(C3CCC3)nc(-c3ccc(NC(=O)Nc4cccc(C(F)(F)F)c4)c4ccccc34)c12` [KIRA analog, 4] it is 180 nM; for `CC1(c2nc(-c3ccc(NC(=O)OCCc4ccccc4)c4ccccc34)c3c(N)nccn23)CC1` [KIRA analog, 31] it is 60000 nM.
On to `CC1(c2nc(-c3ccc(NC(=O)Nc4ccccc4)c4ccccc34)c3c(N)nccn23)CC1` [KIRA analog, 12], for which the IC50 came to 190 nM.
For `Cc1cccc(NC(=O)Nc2ccc(-c3nc(C4(C)CC4)n4ccnc(N)c34)c3ccccc23)c1` [KIRA analog, 14] the value was 260 nM.
For `CC1(c2nc(-c3ccc(NC(=O)Nc4cccc(F)c4)c4ccccc34)c3c(N)nccn23)CC1` [KIRA analog, 13] the value was 220 nM.
As to `CN1CCN(Cc2ccc(NC(=O)Nc3ccc(-c4nc(C5(C)CC5)n5ccnc(N)c45)c4ccccc34)cc2C(F)(F)F)CC1` [KIRA analog, 20], the half-inhibitory concentration (IC50) was 190 nM. The IC50 values of the last two molecules are within 1.5-fold of each other.
The figure for `CC1(c2nc(-c3ccc(NC(=O)N4CCOCC4)c4ccccc34)c3c(N)nccn23)CC1` [KIRA analog, 26] is 60000 nM; for `CC1(c2nc(-c3ccc(NC(=O)OCC(=O)c4ccccc4)c4ccccc34)c3c(N)nccn23)CC1` [KIRA analog, 32] it is 60000 nM.
The figure for `Cc1c(NC(=O)Nc2cccc(C(F)(F)F)c2)ccc(-c2nc(C3(C)CC3)n3ccnc(N)c23)c1C` [KIRA analog, 10] is 1200 nM.
The figure for `CC1(c2nc(-c3ccc(NC(=O)Nc4cccc(C(F)(F)F)c4)cc3Cl)c3c(N)nccn23)CC1` [KIRA analog, 9] is 2400 nM.
Consider `Cc1cc(NC(=O)Nc2cccc(C(F)(F)F)c2)ccc1-c1nc(C2(C)CC2)n2ccnc(N)c12` [KIRA analog, 8], for which inhibition was half-maximal at 1500 nM (IC50).
Molecule `CN1CCN(Cc2ccc(NC(=O)Nc3ccc(-c4nc(C5(C)CC5)n5ccnc(N)c45)c4ccccc34)cc2)CC1` [KIRA analog, 21] registered an IC50 of 340 nM.
For the molecule `CC1(c2nc(-c3ccc(NC(=O)Nc4cccc(C(F)(F)F)c4)c4ccccc34)c3c(N)nccn23)CC1` [KIRA analog, 3], inhibition was half-maximal at 90 nM (IC50).

Source of the values: BindingDB's records for doi:10.1021/acschembio.5b00940 (University of Washington, 2016).
